Here are results for four compounds from PMC9135335, “Structure and kinase activity of bacterial cell cycle regulator CcrZ” (PLoS Genetics, 2022).

SMILES strings stand for the structures.

The target in experiment [1] is T1, CcrZ (YtmP) (Bacillus subtilis, UniProt C0SPC1).
T1 construct: full length, 6xHis-SUMO tag cleaved by SUMO protease, expressed in E. coli; monomer ~30 kDa; selenomethionine derivative for the crystal
T1 sequence (C0SPC1 1-269): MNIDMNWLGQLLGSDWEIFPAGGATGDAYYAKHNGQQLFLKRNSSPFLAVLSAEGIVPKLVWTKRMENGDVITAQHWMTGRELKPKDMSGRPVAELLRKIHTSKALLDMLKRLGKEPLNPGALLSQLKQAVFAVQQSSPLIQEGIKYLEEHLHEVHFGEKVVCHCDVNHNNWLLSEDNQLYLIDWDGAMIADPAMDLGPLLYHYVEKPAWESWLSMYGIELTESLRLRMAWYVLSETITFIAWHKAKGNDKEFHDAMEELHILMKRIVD
In words: ADP-Glo ATPase assay (proxy for kinase activity). Format: biochemical. Particulars: 0.1 mM ATP, 37 °C, 30 min, product not identified. (In ADP-Glo the light output rises with the ADP produced.)

Experiment [2] addresses T1, CcrZ (YtmP). In words: X-ray crystallography, SAD, […] Å. The experiment is classed as binding. Particulars: selenomethionine derivative; pH 5.84, PEG 6000, 1 M LiCl, MgCl2 and D-ribose added but not seen; adenine in ATP pocket, phosphates turned to solvent (non-catalytic pose).
Experiment [3] deals with T2, LicA (Streptococcus pneumoniae, UniProt Q8DPI4).
T2 construct: gene pck; gene codon optimized for B. subtilis, pE-SUMO-kan vector, SUMO tag cleaved, expressed in E. coli BL21
T2 sequence (Q8DPI4 entry or part of it): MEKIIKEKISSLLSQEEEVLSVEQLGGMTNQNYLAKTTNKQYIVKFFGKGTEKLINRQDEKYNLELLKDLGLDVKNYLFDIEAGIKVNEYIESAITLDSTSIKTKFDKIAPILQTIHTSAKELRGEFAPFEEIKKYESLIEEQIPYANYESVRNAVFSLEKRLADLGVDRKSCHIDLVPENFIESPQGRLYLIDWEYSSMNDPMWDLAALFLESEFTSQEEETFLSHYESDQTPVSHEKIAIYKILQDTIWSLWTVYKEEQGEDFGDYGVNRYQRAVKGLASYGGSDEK
Kind of experiment: ADP-Glo ATPase assay (proxy for kinase activity). Format: biochemical. Particulars: 1.25 mM choline, 0.1 mM ATP, 37 °C, 30 min.

`OC[C@H]1OC(O)C[C@@H]1O` (stereo partly drawn) [2-deoxy-D-ribose]: the “ADP-Glo ATPase assay (proxy for kinase activity)” value (“ADP-Glo ATPase assay” for short) in experiment [1] (5 mM 2-deoxy-ribose) was “CcrZ ATPase activity was stimulated in the presence of D-ribose and 2-deoxy-D-ribose”.
As for `Nc1ncnc2c1ncn2[C@@H]1O[C@H](COP(=O)(O)OP(=O)(O)NP(=O)(O)O)[C@@H](O)[C@H]1O` [AMP-PNP], the “X-ray crystallography, SAD, 2.6 Å” value in experiment [2] is on record as “we solved the crystal structure of B. subtilis CcrZ bound to AMP-PNP”.
Turning to `OC1OC[C@@H](O)[C@@H](O)[C@H]1O` (stereo partly drawn) [D-ribose], the “ADP-Glo ATPase assay” value in experiment [1] (5 mM D-ribose) was “CcrZ ATPase activity was stimulated in the presence of D-ribose and 2-deoxy-D-ribose”.
Regarding `C[N+](C)(C)CCO` [choline], in experiment [3], the “ADP-Glo ATPase assay” value is listed as “CcrZ does not have activity on choline while LicA shows robust activity”.
